Measurements reported in patent US11541051B2, “Compositions and methods for treating CDK4/6-mediated cancer” (Icahn School of Medicine at Mount Sinai, priority 2016, dated 2023).

The molecules below were run on CDK4/6 (assay: Characterization of CDK4/6 degraders/disruptors in various breast cancer and melanoma cells (summary, Examples 12 and 13)).
Format: cell-based
Method: Specific exemplary abemaciclib-, ribociclib-, and palbociclib-based CDK4/6 degraders/disruptors were characterized in various different breast cancer and melanoma cells (Examples 12 and 13, FIGS. 10-23). […] This efficacy in suppressing CDK4/6 expression and CDK4/6 activity correlated with efficacy in inhibiting cancer cell proliferation.
Protein concentrations were determined by BCA from cell lysates and equal amounts of protein are loaded to a Bis-Tris 4-12% gel. Gels were run at 80 V for 4 h using 1× running buffer (25 mM Tris, pH 8.3, […] glycine, 0.1% SDS). Proteins were transferred to a nitrocellulose membrane for 2 h at 100 V using transfer buffer (25 mM Tris, pH 8.3, […] glycine, 20% methanol). Ponceau S staining (0.1% Ponceau S, 1% acetic acid) was used to confirm transfer of proteins to the membrane followed by blocking of the membrane for 30 min at room temperature using blocking buffer (5% dry nonfat milk, 0.1% Tween, 0.02% sodium azide in TBS). The blocked membrane is incubated with primary antibodies (1:1000 dilution) in blocking buffer at 4° C. overnight. When primary phosphor-antibodies were used, then the membrane is incubated with 5% BSA instead of milk. The membrane was washed three times, 10 min each, with wash buffer (0.1% Tween in TBS) followed by incubation with secondary HRP conjugated antibody (1:5000 dilution) in 2.5% dry nonfat milk, 0.1% Tween in TBS for 1 h at room temperature. The membrane was washed three times, 10 min each, with wash buffer (0.1% Tween in TBS). Membranes are incubated with ECL for 1 min and proteins are detected after exposure to a blue autoradiographic film.

SMILES	suppression of both CDK4/6 expression and CDK4/6 activity (summary)
CC(=O)c1c(C)c2cnc(Nc3ccc(N4CCN(C(=O)CCCCC(=O)N[C@H](C(=O)N5C[C@H](O)C[C@H]5C(=O)NCc5ccc(-c6scnc6C)cc5)C(C)(C)C)CC4)cn3)nc2n(C2CCCC2)c1=O [XY028-132, (2S,4R)-1-((S)-2-(6-(4-(6-((6-acetyl-8-cyclopentyl-5-methyl-7-oxo-7,8-dihydropyrido[2,3-d]pyrimidin-2-yl)amino)pyridin-3-yl)piperazin-1-yl)-6-oxohexanamido)-3,3-dimethylbutanoyl)-4-hydroxy-N-(4-(4-methylthiazol-5-yl)benzyl)pyrrolidine-2-carboxamide]	especially effective in suppressing both CDK4/6 expression and CDK4/6 activity
CC(=O)c1c(C)c2cnc(Nc3ccc(N4CCN(C(=O)CCCCCCNc5cccc6c5C(=O)N(C5CCC(=O)NC5=O)C6=O)CC4)cn3)nc2n(C2CCCC2)c1=O (stereo not drawn) [XY028-144, 4-((7-(4-(6-((6-acetyl-8-cyclopentyl-5-methyl-7-oxo-7,8-dihydropyrido[2,3-d]pyrimidin-2-yl)amino)pyridin-3-yl)piperazin-1-yl)-7-oxoheptyl)amino)-2-(2,6-dioxopiperidin-3-yl)isoindoline-1,3-dione]	especially effective in suppressing both CDK4/6 expression and CDK4/6 activity
Cc1nc2c(F)cc(-c3nc(Nc4ccc(CN5CCN(C(=O)CCCCCCC(=O)Nc6cccc7c6C(=O)N(C6CCC(=O)NC6=O)C7=O)CC5)cn4)ncc3F)cc2n1C(C)C (stereo not drawn) [YX26-66, N-(2-(2,6-dioxopiperidin-3-yl)-1,3-dioxoisoindolin-4-yl)-8-(4-((6-((5-fluoro-4-(4-fluoro-1-isopropyl-2-methyl-1H-benzo[d]imidazol-6-yl)pyrimidin-2-yl)amino)pyridin-3-yl)methyl)piperazin-1-yl)-8-oxooctanamide]	especially effective in suppressing both CDK4/6 expression and CDK4/6 activity
CC(=O)c1c(C)c2cnc(Nc3ccc(N4CCN(C(=O)COc5cccc6c5C(=O)N(C5CCC(=O)NC5=O)C6=O)CC4)cn3)nc2n(C2CCCC2)c1=O (stereo not drawn) [YX039-48, 4-(2-(4-(6-((6-acetyl-8-cyclopentyl-5-methyl-7-oxo-7,8-dihydropyrido[2,3-d]pyrimidin-2-yl)amino)pyridin-3-yl)piperazin-1-yl)-2-oxoethoxy)-2-(2,6-dioxopiperidin-3-yl)isoindoline-1,3-dione]	especially effective in suppressing both CDK4/6 expression and CDK4/6 activity
CC(=O)c1c(C)c2cnc(Nc3ccc(N4CCN(C(=O)CCc5cccc6c5CN(C5CCC(=O)NC5=O)C6=O)CC4)cn3)nc2n(C2CCCC2)c1=O (stereo not drawn) [YX039-124, 3-(4-(3-(4-(6-((6-acetyl-8-cyclopentyl-5-methyl-7-oxo-7,8-dihydropyrido[2,3-d]pyrimidin-2-yl)amino)pyridin-3-yl)piperazin-1-yl)-3-oxopropyl)-1-oxoisoindolin-2-yl)piperidine-2,6-dione]	especially effective in suppressing both CDK4/6 expression and CDK4/6 activity
CC(=O)c1c(C)c2cnc(Nc3ccc(N4CCN(C(=O)CCc5cccc6c5C(=O)N(C5CCC(=O)NC5=O)C6=O)CC4)cn3)nc2n(C2CCCC2)c1=O (stereo not drawn) [YX039-147, 4-(3-(4-(6-((6-acetyl-8-cyclopentyl-5-methyl-7-oxo-7,8-dihydropyrido[2,3-d]pyrimidin-2-yl)amino)pyridin-3-yl)piperazin-1-yl)-3-oxopropyl)-2-(2,6-dioxopiperidin-3-yl)isoindoline-1,3-dione]	especially effective in suppressing both CDK4/6 expression and CDK4/6 activity
